≈ marks a conversion by molar mass, not a printed value. Where two headings read alike, the source gives them in different places.
What was measured:
[1] = tested on: C. albicans GDH2346; assay: Candida IC50, vegetative cells, by OD600 and fluorescence; type: cell-based; settings: Candida albicans, GDH2346; vegetative cells; read-out: CA (Candida IC50)
Description: Candida IC50s were determined by OD600 and fluorescence from vegetative cells and by MTS viability assay in the hyphal state. MICs were determined using a broth microdilution assay under standard CLSI conditions Bacteria strains: E. coli 25922 (EC), S. aureus 27660 (SA), E. faecalis 29212 (EF), P. aeruginosa 10145 (PA), and K. pneumoniae 13883 (KP). Cytotoxicity (EC50) was determined against mouse 3T3 fibroblasts, human transformed liver HepG2 cells, and human oral keratinocyte cell line, OKF6/TERT using an MTS viability assay. Candida IC50s<10 μg/mL, MICs<5 μg/mL and cytotoxicity EC50s>100 μM are indicated in green. MICs>5 μg/mL and cytotoxicity EC50s<100 μM are indicated in red. Candida IC50s (CA) were determined by OD600 and fluorescence from vegetative cells. MICs were determined using a broth microdilution assay under standard CLSI conditions Bacteria strains: E. coli 25922 (EC), S. aureus 27660 (SA), E. faecalis 29212 (EF), P. aeruginosa 10145 (PA), and K. pneumoniae 13883 (KP). Cytotoxicity (EC50) was determined against mouse 3T3 fibroblasts and human transformed liver HepG2 cells using an MTS viability assay. For determination of anti-Candida IC50s, the method was modified by using RPMI/MOPS buffer pH 6.3 and by addition of FDGlu, a substrate for the yeast enzyme exoglucanase which is secreted during cell growth. This provides a fluorescent readout for cell growth which was used in addition to the traditional optical density measure of growth. OD600 and fluorescence were determined at 24 and 48 hours and the average of all 4 reads was used for the final IC50 determination.

[2] = Cytotoxicity, MTS viability assay; type: cell-based, human
Description: (§1) Candida IC50s were determined by OD600 and fluorescence from vegetative cells and by MTS viability assay in the hyphal state. MICs were determined using a broth microdilution assay under standard CLSI conditions Bacteria strains: E. coli 25922 (EC), S. aureus 27660 (SA), E. faecalis 29212 (EF), P. aeruginosa 10145 (PA), and K. pneumoniae 13883 (KP). Cytotoxicity (EC50) was determined against mouse 3T3 fibroblasts, human transformed liver HepG2 cells, and human oral keratinocyte cell line, OKF6/TERT using an MTS viability assay. Candida IC50s<10 μg/mL, MICs<5 μg/mL and cytotoxicity EC50s>100 μM are indicated in green. MICs>5 μg/mL and cytotoxicity EC50s<100 μM are indicated in red.
Candida IC50s (CA) were determined by OD600 and fluorescence from vegetative cells. MICs were determined using a broth microdilution assay under standard CLSI conditions Bacteria strains: E. coli 25922 (EC), S. aureus 27660 (SA), E. faecalis 29212 (EF), P. aeruginosa 10145 (PA), and K. pneumoniae 13883 (KP). Cytotoxicity (EC50) was determined against mouse 3T3 fibroblasts and human transformed liver HepG2 cells using an MTS viability assay.
CLSI conditions Bacteria strains: clinical isolates; yeast strains: C. dubliniensis (NCPF3949), C. glabrata (ATCC 90030), C. krusei (ATCC 6258), C. parapsilosis (ATCC 22019), and C. tropicalis (ATCC 750). Cytotoxicity (EC50) was determined against mouse 3T3 fibroblasts, human transformed liver HepG2 cells, and human oral keratinocyte cell line, OKF6/TERT using an MTS viability assay.

[3] = tested on: P. aeruginosa 10145; assay: Bacterial MIC, broth microdilution, CLSI; type: cell-based; settings: Pseudomonas aeruginosa, 10145; read-out: PA (MIC)
Description: as §1, with “red. Candida IC50s (CA) were determined by OD600 and fluorescence from vegetative cells. MICs were determined using a broth microdilution assay under standard CLSI conditions Bacteria strains: E. coli 25922 (EC), S. aureus 27660 (SA), E. faecalis 29212 (EF), P. aeruginosa 10145 (PA), and K. pneumoniae 13883 (KP). Cytotoxicity (EC50) was determined against mouse 3T3 fibroblasts and human transformed liver HepG2 cells using an MTS viability assay.” for “red.”

[4] = tested on: E. coli 25922; assay: Bacterial MIC, broth microdilution, CLSI; type: cell-based; settings: Escherichia coli, 25922; read-out: EC (MIC)
Description: as §1, with “red. Candida IC50s (CA) were determined by OD600 and fluorescence from vegetative cells. MICs were determined using a broth microdilution assay under standard CLSI conditions Bacteria strains: E. coli 25922 (EC), S. aureus 27660 (SA), E. faecalis 29212 (EF), P. aeruginosa 10145 (PA), and K. pneumoniae 13883 (KP). Cytotoxicity (EC50) was determined against mouse 3T3 fibroblasts and human transformed liver HepG2 cells using an MTS viability assay.” for “red.”

[5] = tested on: S. aureus 27660; assay: Bacterial MIC, broth microdilution, CLSI; type: cell-based; settings: Staphylococcus aureus, 27660; read-out: SA (MIC)
Description: as §1, with “red. Candida IC50s (CA) were determined by OD600 and fluorescence from vegetative cells. MICs were determined using a broth microdilution assay under standard CLSI conditions Bacteria strains: E. coli 25922 (EC), S. aureus 27660 (SA), E. faecalis 29212 (EF), P. aeruginosa 10145 (PA), and K. pneumoniae 13883 (KP). Cytotoxicity (EC50) was determined against mouse 3T3 fibroblasts and human transformed liver HepG2 cells using an MTS viability assay.” for “red.”

[6] = tested on: E. faecalis 29212; assay: Bacterial MIC, broth microdilution, CLSI; type: cell-based; settings: Enterococcus faecalis, 29212; read-out: EF (MIC)
Description: as §1, with “red. Candida IC50s (CA) were determined by OD600 and fluorescence from vegetative cells. MICs were determined using a broth microdilution assay under standard CLSI conditions Bacteria strains: E. coli 25922 (EC), S. aureus 27660 (SA), E. faecalis 29212 (EF), P. aeruginosa 10145 (PA), and K. pneumoniae 13883 (KP). Cytotoxicity (EC50) was determined against mouse 3T3 fibroblasts and human transformed liver HepG2 cells using an MTS viability assay.” for “red.”

[7] = human, HepG2 cells (transformed liver), read-out: HepG2 (cytotoxicity EC50)
[8] = mouse, 3T3 fibroblasts, read-out: 3T3 (cytotoxicity EC50)

Row | Structure (SMILES) | IC50 [1] | EC50 [2, 7] | EC50 [2, 8] | MIC [3] | MIC [4] | MIC [5] | MIC [6]
1 | NCCCn1c2cc(-c3cccc(O)c3)ccc2c2ccc(-c3cccc(O)c3)cc21 [Compound 149] | > 100 µg/mL | 20 µM | 29 µM | > 100 µg/mL | 3.13 µg/mL (≈ 7.66 µM) | 0.049 µg/mL (≈ 0.12 µM) | 1.56 µg/mL (≈ 3.82 µM)
2 | NCCCOc1cccc(-c2ccc3c4ccc(-c5cccc(OCCCN)c5)cc4n(CCCN)c3c2)c1 [Compound 150] | 3.34 µg/mL (≈ 6.39 µM) | 58 µM | 54 µM | 3.13 µg/mL (≈ 5.99 µM) | 0.78 µg/mL (≈ 1.49 µM) | 0.049 µg/mL (≈ 0.0937 µM) | 1.56 µg/mL (≈ 2.98 µM)
3 | NCCCn1c2cc(-c3cccc(OCCN)c3)ccc2c2ccc(-c3cccc(OCCN)c3)cc21 [Compound 151] | 3.85 µg/mL (≈ 7.78 µM) | 78 µM | 56 µM | 6.25 µg/mL (≈ 12.6 µM) | 3.13 µg/mL (≈ 6.33 µM) | 0.195 µg/mL (≈ 0.394 µM) | 6.25 µg/mL (≈ 12.6 µM)
4 | NCCCOc1ccc(-c2ccc3c4ccc(-c5ccc(OCCCN)cc5)cc4n(CCCN)c3c2)cc1 [Compound 152] | 3.77 µg/mL (≈ 7.21 µM) | 12 µM | 34 µM | 3.13 µg/mL (≈ 5.99 µM) | 1.56 µg/mL (≈ 2.98 µM) | 0.39 µg/mL (≈ 0.746 µM) | 1.56 µg/mL (≈ 2.98 µM)
5 | NCCCn1c2cc(-c3cccc(N)c3)ccc2c2ccc(-c3cccc(N)c3)cc21 [Compound 153] | – | 65 µM | 46 µM | 100 µg/mL (≈ 246 µM) | 12.5 µg/mL (≈ 30.7 µM) | 1.56 µg/mL (≈ 3.84 µM) | 12.5 µg/mL (≈ 30.7 µM)
6 | CCn1c2ccc(-c3cccc(N(CCN)CCN)c3)cc2c2cc(-c3cccc(N(CCN)CCN)c3)ccc21 [Compound 155] | 2.63 µg/mL (≈ 4.78 µM) | – | – | 12.5 µg/mL (≈ 22.7 µM) | 12.5 µg/mL (≈ 22.7 µM) | 0.39 µg/mL (≈ 0.709 µM) | > 50 µg/mL
7 | NCCN(CCN)c1cccc(-c2ccc3[nH]c4ccc(-c5cccc(N(CCN)CCN)c5)cc4c3c2)c1 [Compound 156] | 1.94 µg/mL (≈ 3.72 µM) | > 1000 µM | 487 µM | 12.5 µg/mL (≈ 24 µM) | 1.56 µg/mL (≈ 2.99 µM) | 1.56 µg/mL (≈ 2.99 µM) | > 50 µg/mL
8 | NCCN(CCN)Cc1cccc(-c2ccc3[nH]c4ccc(-c5cccc(CN(CCN)CCN)c5)cc4c3c2)c1 [Compound 158] | 17.5 µg/mL (≈ 31.8 µM) | 615 µM | 179 µM | 25 µg/mL (≈ 45.5 µM) | 1.56 µg/mL (≈ 2.84 µM) | 1.56 µg/mL (≈ 2.84 µM) | > 50 µg/mL
9 | N=C(N)NCCCn1c2cc(-c3ccc(CCNC(=N)N)c(CCNC(=N)N)c3)ccc2c2ccc(-c3ccc(CCNC(=N)N)c(CCNC(=N)N)c3)cc21 [Compound 160] | 1.48 µg/mL (≈ 1.95 µM) | 28 µM | 28 µM | 6.25 µg/mL (≈ 8.23 µM) | 1.56 µg/mL (≈ 2.06 µM) | 1.95 µg/mL (≈ 2.57 µM) | 3.13 µg/mL (≈ 4.12 µM)
10 | NCCCn1c2cc(-c3cc(CCN)cc(CCN)c3)ccc2c2ccc(-c3cc(CCN)cc(CCN)c3)cc21 [Compound 161] | 11.8 µg/mL (≈ 21.5 µM) | 466 µM | 356 µM | 50 µg/mL (≈ 91.1 µM) | 1.56 µg/mL (≈ 2.84 µM) | 6.25 µg/mL (≈ 11.4 µM) | > 50 µg/mL
11 | N=C(N)NCCCn1c2cc(-c3cc(CCNC(=N)N)cc(CCNC(=N)N)c3)ccc2c2ccc(-c3cc(CCNC(=N)N)cc(CCNC(=N)N)c3)cc21 [Compound 162] | 3.12 µg/mL (≈ 4.11 µM) | 273 µM | 49 µM | 3.13 µg/mL (≈ 4.12 µM) | 1.56 µg/mL (≈ 2.06 µM) | 0.39 µg/mL (≈ 0.514 µM) | 12.5 µg/mL (≈ 16.5 µM)
12 | N=C(N)NCCCOc1cc(OCCCNC(=N)N)cc(-c2ccc3c(c2)c2cc(-c4cc(OCCCNC(=N)N)cc(OCCCNC(=N)N)c4)ccc2n3CCCNC(=N)N)c1 [Compound 163] | 1.79 µg/mL (≈ 2.04 µM) | 113 µM | 31 µM | 50 µg/mL (≈ 56.9 µM) | 3.13 µg/mL (≈ 3.56 µM) | 3.13 µg/mL (≈ 3.56 µM) | 3.13 µg/mL (≈ 3.56 µM)
